Reference: PubChem BioAssay (NCI)
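Grown in 96-well plates, cells were treated for 48 hours with each compound at five concentrations. Insufficient inhibition: endpoint recorded as highest concentration tested. GI50: concentration for 50% inhibition of growth. TGI: concentration producing complete growth inhibition.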

Tests used:
Experiment in all cases: growth of human tumour cells (NCI), 48 h
[1] = system: SK-OV-3 ovarian
[2] = system: HCT-116 colon
[3] = system: HOP-92 NSCLC
[4] = system: PC-3 prostate
[5] = system: SK-MEL-5 melanoma
[6] = system: BT-549 breast
[7] = system: HOP-62 NSCLC
[8] = system: NCI-H23 lung
[9] = system: EKVX NSCLC
[10] = system: M14 melanoma
[11] = system: KM12 colon
[12] = system: SF-268 CNS
[13] = system: 786-0 renal
[14] = system: HCT-15 colon
[15] = system: OVCAR-4 ovarian
[16] = system: NCI-H226 lung
[17] = system: SF-295 CNS
[18] = system: T-47D breast
[19] = system: OVCAR-3 ovarian
[20] = system: SNB-19 CNS
[21] = system: HL-60(TB) leukemia
[22] = system: UO-31 renal
[23] = system: CAKI-1 renal
[24] = system: ACHN renal
[25] = system: K-562 leukemia
[26] = system: IGROV1 ovarian
[27] = system: TK-10 renal
[28] = system: OVCAR-8 ovarian
[29] = system: DU-145 prostate
[30] = system: RPMI-8226 leukemia
[31] = system: HS 578T breast
[32] = system: U251 CNS
[33] = system: SNB-75 CNS
[34] = system: CCRF-CEM leukemia
[35] = system: A498 renal
[36] = system: HCC-2998 colon
[37] = system: UACC-257 melanoma
[38] = system: NCI-H522 lung
[39] = system: SK-MEL-28 melanoma
[40] = system: SW-620 colon
[41] = system: A549 NSCLC
[42] = system: COLO 205 colon
[43] = system: MDA-MB-435
[44] = system: MOLT-4 leukemia
[45] = system: UACC-62 melanoma
[46] = system: SN12C renal
[47] = system: RXF 393 renal
[48] = system: OVCAR-5 ovarian
[49] = system: SK-MEL-2 melanoma
[50] = system: HT29 colon
[51] = system: SF-539 CNS
[52] = system: MCF7 breast
[53] = system: MALME-3M melanoma
[54] = system: NCI/ADR-RES ovarian
[55] = system: MDA-MB-468 breast
[56] = system: LOX IMVI melanoma
[57] = system: NCI-H460 lung
[58] = system: MDA-MB-231 breast

C/C(=N/O)c1ccc(NC(=O)CSc2nnc(-c3ccc4nc(-c5ccc(Cl)cc5)[nH]c4c3)o2)cc1
GI50 [1]: 20.4 µM
TGI [1]: 39.4 µM
GI50 [2]: 4.78 µM
TGI [2]: 37.7 µM
GI50 [3]: 3.12 µM
TGI [3]: 9.48 µM
GI50 [4]: 3.6 µM
TGI [4]: 16.3 µM
GI50 [5]: 5.47 µM
TGI [5]: 18.2 µM
GI50 [6]: 4.36 µM
TGI [6]: 20.5 µM
GI50 [7]: 2570 nM
TGI [7]: 8.69 µM
GI50 [8]: 3.43 µM
TGI [8]: 16.7 µM
GI50 [9]: 18 µM
TGI [9]: 45.1 µM
GI50 [10]: 3.38 µM
TGI [10]: 15 µM
GI50 [11]: 16.7 µM
TGI [11]: 43 µM
GI50 [12]: 12.7 µM
TGI [12]: 30.5 µM
GI50 [13]: 3.36 µM
TGI [13]: 11.8 µM
GI50 [14]: 56.9 µM
TGI [14]: > 100 µM
GI50 [15]: 18.7 µM
TGI [15]: 42 µM
GI50 [16]: 13.5 µM
TGI [16]: 32.8 µM
GI50 [17]: 12.9 µM
TGI [17]: 28.9 µM
GI50 [18]: 17.3 µM
TGI [18]: 41.9 µM
GI50 [19]: 18.8 µM
TGI [19]: 38 µM
GI50 [20]: 12 µM
TGI [20]: 25.7 µM
GI50 [21]: 13.8 µM
TGI [21]: > 100 µM
GI50 [22]: 24.8 µM
TGI [22]: > 100 µM
GI50 [23]: 12.3 µM
TGI [23]: 28.5 µM
GI50 [24]: 15.8 µM
TGI [24]: 35 µM
GI50 [25]: 3.39 µM
TGI [25]: > 100 µM
GI50 [26]: 16.2 µM
TGI [26]: 30.5 µM
GI50 [27]: 28.4 µM
TGI [27]: 56.4 µM
GI50 [28]: 3.29 µM
TGI [28]: 15.1 µM
GI50 [29]: 17.7 µM
TGI [29]: 33.3 µM
GI50 [30]: 13.6 µM
TGI [30]: 71.5 µM
GI50 [31]: 3.63 µM
TGI [31]: 28.6 µM
GI50 [32]: 3.03 µM
TGI [32]: 8.87 µM
GI50 [33]: 5.87 µM
TGI [33]: 22.8 µM
GI50 [34]: 3.05 µM
TGI [34]: > 100 µM
GI50 [35]: 21.3 µM
TGI [35]: 37.1 µM
GI50 [36]: 43.2 µM
TGI [36]: > 100 µM
GI50 [37]: 12.9 µM
TGI [37]: 29.8 µM
GI50 [38]: 3.48 µM
TGI [38]: 17.2 µM
GI50 [39]: 2230 nM
TGI [39]: 5.14 µM
GI50 [40]: 22 µM
TGI [40]: 59.5 µM
GI50 [41]: 8.19 µM
TGI [41]: 28.1 µM
GI50 [42]: 22.3 µM
TGI [42]: 66.1 µM
GI50 [43]: 3.79 µM
TGI [43]: 15 µM
GI50 [44]: 3.66 µM
TGI [44]: > 100 µM
GI50 [45]: 3.09 µM
TGI [45]: 11.1 µM
GI50 [46]: 4.04 µM
TGI [46]: 15.5 µM
GI50 [47]: 2380 nM
TGI [47]: 8.16 µM
GI50 [48]: 17.8 µM
TGI [48]: 36.1 µM
GI50 [49]: 13.2 µM
TGI [49]: 27.8 µM
GI50 [50]: 9.34 µM
TGI [50]: 29.8 µM
GI50 [51]: 10.2 µM
TGI [51]: 22.1 µM
GI50 [52]: 6.65 µM
TGI [52]: 26 µM
GI50 [53]: 1930 nM
TGI [53]: 4.86 µM
GI50 [54]: > 100 µM
TGI [54]: > 100 µM
GI50 [55]: 18.5 µM
TGI [55]: 33.7 µM
GI50 [56]: 1940 nM
TGI [56]: 4.05 µM
GI50 [57]: 12.7 µM
TGI [57]: 32.4 µM
GI50 [58]: 2220 nM
TGI [58]: 5.35 µM
